# Source: patent US20190070165A1, “N-HYDROXYISOQUINOLINEDIONE INHIBITORS OF HBV REPLICATION” (Saint Louis University, priority 2016, published 2019)
# Tests used:
# HBV RNaseH = HBV RNaseH (Hepatitis B virus genotype D subtype ayw, UniProt P03156); assay: Detection of capsid-associated RNA:DNA heteroduplexes by Southern analysis; assay type: cell-based; set-up: expressed in transfected cells; host or cells: HepDES19 (HepG2 with a stably transfected HBV genotype D genome); conditions: HepDES19 cells, seven days; #89 at 4×EC50 (10.4 μM), #138 at 30 μM
# HBV RNaseH, sequence (P03156 whole entry): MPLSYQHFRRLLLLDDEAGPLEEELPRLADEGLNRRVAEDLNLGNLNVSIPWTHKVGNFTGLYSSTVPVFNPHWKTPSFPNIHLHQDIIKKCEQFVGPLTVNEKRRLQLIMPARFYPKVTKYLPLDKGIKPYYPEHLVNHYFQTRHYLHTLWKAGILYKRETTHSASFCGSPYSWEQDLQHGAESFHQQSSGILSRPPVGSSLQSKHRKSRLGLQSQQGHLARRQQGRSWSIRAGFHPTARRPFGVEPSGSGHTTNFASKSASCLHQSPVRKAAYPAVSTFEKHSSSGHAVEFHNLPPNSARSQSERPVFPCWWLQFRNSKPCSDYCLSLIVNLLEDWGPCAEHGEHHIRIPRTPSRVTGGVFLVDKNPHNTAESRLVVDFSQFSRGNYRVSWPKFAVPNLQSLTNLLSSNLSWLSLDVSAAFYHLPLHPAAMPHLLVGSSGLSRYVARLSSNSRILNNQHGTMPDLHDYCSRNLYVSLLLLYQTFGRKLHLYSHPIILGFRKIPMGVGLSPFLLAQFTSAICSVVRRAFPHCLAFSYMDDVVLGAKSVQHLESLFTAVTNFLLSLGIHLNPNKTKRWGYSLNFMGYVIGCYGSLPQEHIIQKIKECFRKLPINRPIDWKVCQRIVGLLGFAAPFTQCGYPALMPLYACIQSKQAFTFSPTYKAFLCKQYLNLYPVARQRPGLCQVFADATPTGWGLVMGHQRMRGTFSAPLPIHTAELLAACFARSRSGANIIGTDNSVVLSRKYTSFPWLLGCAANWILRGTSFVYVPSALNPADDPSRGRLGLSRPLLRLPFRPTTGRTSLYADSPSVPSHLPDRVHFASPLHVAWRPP
# Experimental: RNA:DNA heteroduplexes migrate as double-stranded products, but degradation of the RNA strand with exogenous RNase causes the DNAs to migrate as single-stranded species. To test for accumulation of RNA:DNA heteroduplexes, HepDES19 cells replicating HBV were treated with 4×EC50 (10.4 μM) of compound #89 and 30 μM compound #138 (negative control). HBV cores were harvested after seven days of compound treatment. Capsid-associated nucleic acids were purified and split into two pools; one pool was treated with RNaseA and the other pool was mock treated.
# HepDES19 cells were plated in 100 mm dishes without tetracycline and incubated for 72 hours in the absence of tetracycline before addition of compound #89 at 4×EC50 (10.4 μM) and the negative control compound #138 at 30 μM; compound-containing media was replaced every three days. HBV nucleic acids were purified seven days after compound addition. HBV core particles were isolated by sedimentation through a sucrose cushion as described (Tavis et al., 1998). Cores were treated overnight with proteinase K (0.5 mg/mL) and 1.5% SDS at 37° C. Nucleic acids were purified by phenol-chloroform extraction and ethanol precipitation. The nucleic acids were split into two pools. One pool was treated with RNaseA (1.5 μg/μL) at 37° C. for 30 minutes and the other was mock-treated. […]
# HSV-1 = HSV-1 replication inhibition assay in Vero cells; assay type: cell-based, herpes simplex virus 1; conditions: Human alphaherpesvirus 1, 24 h; 5 μM, Vero cells; read-out: HSV-1 suppression (log10 at 5 μM), class symbol
smiles,measurement,setting,value
O=C1c2ccccc2C(=O)N1O [Compound 138],accumulation of RNA:DNA heteroduplexes,HBV RNaseH,unaltered by exogenous RNase treatment
same,log reduction at 5 µM,HSV-1,< 1
